# Measurements published in patent US10196556B2, “Surfactant composition” (RHODIA OPERATIONS, priority 2012, dated 2019).
# Read-outs that look alike come from different tables or passages of the source.
# Assay: Static foam test (Waring blender), foam persistence
# Format: physicochemical
# Details: for Foam Volume: ambient temperature; for Foam Quality (%): from flash foam volume and 200 ml solution volume
# Protocol: In order to perform static foam testing, 10% aqueous stock solutions of the surfactant compositions were prepared in distilled water. These were added to 10% w/w aqueous sodium chloride solution, such that the concentration of the surfactant in the brine was 1000 ppm.
# Surfactant compositions according to the invention were benchmarked against the individual surfactants. A Waring type blender was used.
# The flash foam volumes were measured by taking 200 ml of a surfactant composition according to the invention, subjecting it to high shear for 30 seconds at ambient temperature (20° C.) and then transferring the foam immediately to a measuring cylinder (1000 ml) for measurement. This initial volume was the flash volume. The foam and liquid volume was monitored for a further 10 minutes.
# The ‘half-life’ of the foam was defined as the time taken for 100 ml of fluid to drain from the foam. Without being bound by theory, an increase in the half-life corresponds to a reduction in the liquid drainage rate and reflects the texture of the foam. Denser foams, as a rule, tend to take longer to drain and therefore are more persistent.
# Static foam tests are a rapid and relatively straightforward method to screen the foam performance of surfactants. The method provides information on the stability and quality, i.e. texture (structure), of the foam produced in a Waring blender. The mechanical properties of the foam lamellae and foam structure are determined to some extent by the packing of the surfactant molecules at the gas/liquid interface. The foam structure influences liquid drainage rates and therefore, the persistence or stability of the foam.
# Surfactant solutions (200 ml) were subjected to high shear for 30 seconds at ambient temperatures and the foam transferred immediately to a measuring cylinder (1000 ml). The foam and liquid volume was monitored for a further 10 minutes. 10% active aqueous stock solutions of the surfactants were prepared in distilled water and these were added to 10% w/w aqueous sodium chloride solution. The concentration of the surfactant in the brine was 1000 ppm.
# The initial foam volume is also called the ‘flash’ foam.
# [1] = 0 s (flash foam), 1000 ppm surfactant in 10% w/w NaCl
# [2] = 120 s, 1000 ppm surfactant in 10% w/w NaCl
# [3] = 240 s, 1000 ppm surfactant in 10% w/w NaCl
# [4] = 360 s, 1000 ppm surfactant in 10% w/w NaCl
# [5] = 480 s, 1000 ppm surfactant in 10% w/w NaCl
# [6] = 600 s, 1000 ppm surfactant in 10% w/w NaCl
# [7] = 1000 ppm surfactant in 10% w/w NaCl
# [8] = time for 100 ml of fluid to drain from the foam, 1000 ppm surfactant in 10% w/w NaCl
Foam Volume [1] [mL],Foam Volume [2] [mL],Foam Volume [3] [mL],Foam Volume [4] [mL],Foam Volume [5] [mL],Foam Volume [6] [mL],Foam Quality (%) [7] [%],Half-life [8] [min],Half-life [min],Substance
670,524,486,430,360,350,70.1,4.5,,Lauramidopropyl betaine [Mackam LMB]
,,,,,,,,0.4,Sodium hydroxypropyl sulfonate lauryl glucose crosspolymer [PolySugaNate 160P]
600,406,350,280,240,210,66.7,3.2,,Lauramidopropyl hydroxysultaine [Mackam LSB-50]
